Results on one compound are retold here after PubChem BioAssay AID1671289.

Each structure is given as a SMILES string.

The target of the assay is Receptor tyrosine-protein kinase erbB-2 (Homo sapiens) (UniProt P04626). Briefly: ERBB2 kinase inhibitors, dose response, biochemical, Z'-LYTE FRET, direct format, recombinant human (AID 1671289). The conditions noted are these: Z'-LYTE FRET kinase activity.
Sequence of Receptor tyrosine-protein kinase erbB-2 (Homo sapiens) (P04626 whole entry, looked up): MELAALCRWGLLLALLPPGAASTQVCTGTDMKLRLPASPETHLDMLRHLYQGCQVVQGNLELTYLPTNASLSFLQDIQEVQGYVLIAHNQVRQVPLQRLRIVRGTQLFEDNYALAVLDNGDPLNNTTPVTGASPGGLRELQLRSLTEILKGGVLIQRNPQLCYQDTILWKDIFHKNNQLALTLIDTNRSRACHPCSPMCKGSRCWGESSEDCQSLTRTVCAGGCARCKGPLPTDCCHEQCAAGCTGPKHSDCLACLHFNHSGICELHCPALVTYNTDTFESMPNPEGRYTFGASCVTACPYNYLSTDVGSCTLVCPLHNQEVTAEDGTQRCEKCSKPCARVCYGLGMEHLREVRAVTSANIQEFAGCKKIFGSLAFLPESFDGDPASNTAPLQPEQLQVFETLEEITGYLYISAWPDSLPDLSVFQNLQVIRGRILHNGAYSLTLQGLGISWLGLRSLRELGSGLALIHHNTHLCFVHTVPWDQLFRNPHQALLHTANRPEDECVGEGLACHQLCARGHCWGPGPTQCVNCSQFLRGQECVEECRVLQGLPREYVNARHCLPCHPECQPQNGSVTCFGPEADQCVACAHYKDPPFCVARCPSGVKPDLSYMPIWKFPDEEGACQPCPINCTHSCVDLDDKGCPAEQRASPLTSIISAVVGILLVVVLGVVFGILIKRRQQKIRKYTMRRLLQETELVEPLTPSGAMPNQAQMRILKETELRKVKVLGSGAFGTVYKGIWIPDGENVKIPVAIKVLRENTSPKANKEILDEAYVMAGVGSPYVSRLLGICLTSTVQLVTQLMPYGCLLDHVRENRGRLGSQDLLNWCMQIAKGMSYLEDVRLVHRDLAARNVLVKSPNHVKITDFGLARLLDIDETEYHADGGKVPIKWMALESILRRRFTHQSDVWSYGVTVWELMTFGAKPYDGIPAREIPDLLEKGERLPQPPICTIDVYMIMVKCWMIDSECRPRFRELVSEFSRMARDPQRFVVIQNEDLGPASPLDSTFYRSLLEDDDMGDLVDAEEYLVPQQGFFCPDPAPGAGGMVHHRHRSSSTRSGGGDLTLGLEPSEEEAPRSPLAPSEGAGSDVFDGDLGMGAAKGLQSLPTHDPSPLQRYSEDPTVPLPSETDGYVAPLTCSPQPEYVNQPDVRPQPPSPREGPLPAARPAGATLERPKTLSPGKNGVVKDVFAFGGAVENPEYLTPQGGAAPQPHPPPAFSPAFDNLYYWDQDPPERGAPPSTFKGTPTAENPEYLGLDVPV

In general, IC50 refers to the midpoint of a concentration-inhibition curve. In the case of `COc1cc2ncnc(Nc3cccc(Cl)c3)c2cc1OC`, the half-maximal inhibitory concentration (IC50) was 46.5 nM.
